Results from patent publication US8959984B2, “Proteome-wide quantification of small molecule binding to cellular target proteins” (priority 2007, dated 2015).

Key:
Test in all cases: binding to VI16742 beads (HeLa lysate, SILAC MS)
[1] = biological target: T1, MRCKb (CDC42BPB, IPI00477763) (Homo sapiens, UniProt Q9Y5S2)
T1 construct: endogenous in cells; host or cells: HeLa S3
Procedure, shortened: (§1)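 First, lysate proteins are exposed to beads bearing the pyrido[2,3-d]pyrimidine-based inhibitor. Next, specifically retained proteins are identified.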

[2] = biological target: T2, MASTL (IPI00074258) (Homo sapiens, UniProt Q96GX5)
T2 construct: endogenous in cells; host or cells: HeLa S3
T2 sequence (Q96GX5 1-879): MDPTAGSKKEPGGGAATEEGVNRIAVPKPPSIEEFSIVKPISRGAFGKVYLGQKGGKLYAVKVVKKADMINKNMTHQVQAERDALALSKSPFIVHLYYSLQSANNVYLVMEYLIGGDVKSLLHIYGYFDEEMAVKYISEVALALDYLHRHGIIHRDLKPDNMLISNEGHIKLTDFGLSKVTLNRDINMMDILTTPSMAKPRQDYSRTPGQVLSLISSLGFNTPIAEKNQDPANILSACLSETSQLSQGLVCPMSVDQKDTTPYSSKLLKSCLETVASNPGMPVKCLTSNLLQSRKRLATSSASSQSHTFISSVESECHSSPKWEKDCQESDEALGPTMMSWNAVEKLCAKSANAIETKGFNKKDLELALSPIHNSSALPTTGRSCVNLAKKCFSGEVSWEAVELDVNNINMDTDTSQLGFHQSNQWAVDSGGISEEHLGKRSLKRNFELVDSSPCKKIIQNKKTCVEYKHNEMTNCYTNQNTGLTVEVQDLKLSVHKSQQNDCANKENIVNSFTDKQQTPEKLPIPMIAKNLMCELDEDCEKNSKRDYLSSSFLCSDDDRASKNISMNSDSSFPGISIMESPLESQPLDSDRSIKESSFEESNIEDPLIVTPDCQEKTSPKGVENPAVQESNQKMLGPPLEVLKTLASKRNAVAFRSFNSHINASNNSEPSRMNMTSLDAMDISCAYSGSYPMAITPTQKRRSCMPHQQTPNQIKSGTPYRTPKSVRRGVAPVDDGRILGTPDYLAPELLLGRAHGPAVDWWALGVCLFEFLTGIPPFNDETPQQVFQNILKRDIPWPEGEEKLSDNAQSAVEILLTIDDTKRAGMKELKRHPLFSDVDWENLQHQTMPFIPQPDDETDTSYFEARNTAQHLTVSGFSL
Procedure, shortened: as §1

[3] = biological target: T3, PHKg2 (PHKG2, IPI00012891) (Homo sapiens, UniProt P15735)
T3 construct: endogenous in cells; host or cells: HeLa S3
T3 sequence (P15735 1-406): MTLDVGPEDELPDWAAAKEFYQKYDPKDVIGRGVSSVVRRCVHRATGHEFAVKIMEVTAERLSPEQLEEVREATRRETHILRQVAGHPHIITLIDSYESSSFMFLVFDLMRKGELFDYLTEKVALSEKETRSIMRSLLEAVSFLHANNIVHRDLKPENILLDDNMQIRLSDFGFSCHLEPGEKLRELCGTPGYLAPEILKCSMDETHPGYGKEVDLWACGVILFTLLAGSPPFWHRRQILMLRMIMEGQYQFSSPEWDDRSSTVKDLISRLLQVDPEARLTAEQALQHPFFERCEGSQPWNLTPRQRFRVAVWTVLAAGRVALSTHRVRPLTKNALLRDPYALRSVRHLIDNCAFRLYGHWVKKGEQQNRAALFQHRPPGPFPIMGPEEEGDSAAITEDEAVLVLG
Procedure, shortened: as §1

[4] = biological target: T4, FN3KRP (IPI00099986) (Homo sapiens, UniProt Q9HA64)
T4 construct: endogenous in cells; host or cells: HeLa S3
T4 sequence (Q9HA64 1-309): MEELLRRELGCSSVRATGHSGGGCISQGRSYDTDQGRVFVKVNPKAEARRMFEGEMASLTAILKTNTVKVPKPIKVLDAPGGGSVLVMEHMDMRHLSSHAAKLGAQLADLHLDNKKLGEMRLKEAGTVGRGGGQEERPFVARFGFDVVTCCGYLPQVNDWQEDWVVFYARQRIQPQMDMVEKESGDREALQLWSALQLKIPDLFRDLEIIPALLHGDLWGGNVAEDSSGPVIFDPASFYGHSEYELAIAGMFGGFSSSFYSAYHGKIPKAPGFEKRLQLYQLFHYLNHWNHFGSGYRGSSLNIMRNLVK
Procedure, shortened: as §1

[5] = biological target: T5, MET (IPI00294528) (Homo sapiens, UniProt P08581)
T5 construct: endogenous in cells; host or cells: HeLa S3 cell lysate
T5 sequence (P08581 25-1390): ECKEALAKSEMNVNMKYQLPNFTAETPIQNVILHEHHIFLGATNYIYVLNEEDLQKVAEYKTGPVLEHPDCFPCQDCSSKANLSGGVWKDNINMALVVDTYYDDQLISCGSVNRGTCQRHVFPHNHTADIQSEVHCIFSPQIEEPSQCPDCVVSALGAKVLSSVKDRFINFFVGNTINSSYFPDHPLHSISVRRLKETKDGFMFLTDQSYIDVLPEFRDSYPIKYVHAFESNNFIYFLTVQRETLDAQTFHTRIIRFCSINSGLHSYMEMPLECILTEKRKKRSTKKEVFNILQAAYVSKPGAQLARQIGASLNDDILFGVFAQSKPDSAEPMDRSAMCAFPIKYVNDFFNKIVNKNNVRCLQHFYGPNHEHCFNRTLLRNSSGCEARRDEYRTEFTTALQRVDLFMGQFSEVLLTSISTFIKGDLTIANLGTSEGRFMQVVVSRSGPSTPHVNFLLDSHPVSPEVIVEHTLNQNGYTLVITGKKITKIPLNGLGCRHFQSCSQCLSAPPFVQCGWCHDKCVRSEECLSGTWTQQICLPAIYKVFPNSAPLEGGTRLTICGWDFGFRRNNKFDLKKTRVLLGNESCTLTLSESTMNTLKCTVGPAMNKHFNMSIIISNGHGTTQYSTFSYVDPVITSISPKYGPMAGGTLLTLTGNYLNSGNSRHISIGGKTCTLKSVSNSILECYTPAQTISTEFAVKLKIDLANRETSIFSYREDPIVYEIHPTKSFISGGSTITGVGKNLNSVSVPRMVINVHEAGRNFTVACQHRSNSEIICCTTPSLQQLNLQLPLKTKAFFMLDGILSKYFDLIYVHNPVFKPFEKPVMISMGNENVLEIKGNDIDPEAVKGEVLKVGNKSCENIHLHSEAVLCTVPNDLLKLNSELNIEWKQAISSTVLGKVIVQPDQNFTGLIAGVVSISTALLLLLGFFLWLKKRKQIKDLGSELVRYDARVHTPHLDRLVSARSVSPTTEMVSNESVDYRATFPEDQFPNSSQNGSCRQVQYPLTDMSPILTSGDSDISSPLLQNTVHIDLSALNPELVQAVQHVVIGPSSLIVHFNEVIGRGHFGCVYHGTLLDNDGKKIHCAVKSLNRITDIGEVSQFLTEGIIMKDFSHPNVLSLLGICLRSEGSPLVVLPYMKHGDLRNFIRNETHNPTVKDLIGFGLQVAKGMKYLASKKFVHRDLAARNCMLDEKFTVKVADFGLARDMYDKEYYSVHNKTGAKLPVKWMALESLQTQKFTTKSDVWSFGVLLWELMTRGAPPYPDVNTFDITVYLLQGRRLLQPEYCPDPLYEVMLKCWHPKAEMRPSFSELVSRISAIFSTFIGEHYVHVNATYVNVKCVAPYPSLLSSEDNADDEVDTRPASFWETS
Procedure, shortened: as §1

[6] = biological target: T6, CDK6 (IPI00023529) (Homo sapiens, UniProt Q00534)
T6 construct: endogenous in cells; host or cells: HeLa S3
T6 sequence (Q00534 whole entry): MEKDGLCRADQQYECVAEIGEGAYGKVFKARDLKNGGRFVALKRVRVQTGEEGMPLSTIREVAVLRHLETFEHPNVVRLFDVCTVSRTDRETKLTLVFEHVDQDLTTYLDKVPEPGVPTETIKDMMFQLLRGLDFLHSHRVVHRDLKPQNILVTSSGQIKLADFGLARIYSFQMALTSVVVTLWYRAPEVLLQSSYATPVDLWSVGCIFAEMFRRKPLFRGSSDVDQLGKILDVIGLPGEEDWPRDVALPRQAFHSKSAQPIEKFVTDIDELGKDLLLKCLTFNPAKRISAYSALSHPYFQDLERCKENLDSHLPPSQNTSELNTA
Procedure, shortened: as §1

[7] = biological target: T7, PIK3C2A (IPI00002580) (Homo sapiens, UniProt O00443)
T7 construct: endogenous in cells; host or cells: HeLa S3
T7 sequence (O00443 whole entry): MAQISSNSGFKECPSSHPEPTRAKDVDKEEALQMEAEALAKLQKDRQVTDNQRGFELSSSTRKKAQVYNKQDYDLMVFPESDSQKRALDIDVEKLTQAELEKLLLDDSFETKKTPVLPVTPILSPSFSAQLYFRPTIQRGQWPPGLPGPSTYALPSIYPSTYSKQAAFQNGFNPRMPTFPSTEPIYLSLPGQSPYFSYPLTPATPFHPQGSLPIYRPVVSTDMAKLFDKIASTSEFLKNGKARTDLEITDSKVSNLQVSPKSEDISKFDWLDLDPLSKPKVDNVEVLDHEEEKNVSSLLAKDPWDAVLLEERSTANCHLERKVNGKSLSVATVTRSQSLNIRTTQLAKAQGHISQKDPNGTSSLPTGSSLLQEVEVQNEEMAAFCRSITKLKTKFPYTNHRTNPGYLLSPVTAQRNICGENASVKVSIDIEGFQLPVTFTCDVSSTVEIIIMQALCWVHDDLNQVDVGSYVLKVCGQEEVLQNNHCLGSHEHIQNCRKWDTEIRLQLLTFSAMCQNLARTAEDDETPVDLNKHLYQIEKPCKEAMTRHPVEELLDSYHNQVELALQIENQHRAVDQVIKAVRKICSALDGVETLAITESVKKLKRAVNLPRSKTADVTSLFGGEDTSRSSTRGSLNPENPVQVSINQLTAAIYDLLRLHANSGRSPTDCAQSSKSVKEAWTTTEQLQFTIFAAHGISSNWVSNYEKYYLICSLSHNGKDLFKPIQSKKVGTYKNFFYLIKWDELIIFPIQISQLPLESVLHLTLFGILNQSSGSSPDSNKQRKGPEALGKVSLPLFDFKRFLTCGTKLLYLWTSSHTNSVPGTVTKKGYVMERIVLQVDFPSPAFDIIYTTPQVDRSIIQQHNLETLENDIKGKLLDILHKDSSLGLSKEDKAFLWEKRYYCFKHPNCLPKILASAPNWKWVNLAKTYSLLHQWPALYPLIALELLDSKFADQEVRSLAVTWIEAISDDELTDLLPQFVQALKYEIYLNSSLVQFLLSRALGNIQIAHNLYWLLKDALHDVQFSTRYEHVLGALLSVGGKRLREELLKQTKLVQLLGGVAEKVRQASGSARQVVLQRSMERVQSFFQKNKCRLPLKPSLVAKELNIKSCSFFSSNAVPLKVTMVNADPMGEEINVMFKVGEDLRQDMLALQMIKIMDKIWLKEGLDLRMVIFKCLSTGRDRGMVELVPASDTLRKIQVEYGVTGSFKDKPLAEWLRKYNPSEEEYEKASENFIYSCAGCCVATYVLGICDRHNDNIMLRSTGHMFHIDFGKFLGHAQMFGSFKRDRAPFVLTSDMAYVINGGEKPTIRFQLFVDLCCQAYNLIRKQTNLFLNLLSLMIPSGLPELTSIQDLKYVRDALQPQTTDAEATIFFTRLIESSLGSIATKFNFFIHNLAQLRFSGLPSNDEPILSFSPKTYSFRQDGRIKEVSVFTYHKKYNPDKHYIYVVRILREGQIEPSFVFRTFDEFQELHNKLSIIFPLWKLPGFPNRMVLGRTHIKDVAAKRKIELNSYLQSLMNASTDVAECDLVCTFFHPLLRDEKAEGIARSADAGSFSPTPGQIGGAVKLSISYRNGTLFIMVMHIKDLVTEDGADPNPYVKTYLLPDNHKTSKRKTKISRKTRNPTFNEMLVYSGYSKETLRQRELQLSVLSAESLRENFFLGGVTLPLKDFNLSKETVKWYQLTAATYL
Procedure, shortened: as §1

[8] = biological target: T8, ROCK2 (IPI00307155) (Homo sapiens, UniProt O75116)
T8 construct: endogenous in cells; host or cells: HeLa S3
T8 sequence (O75116 whole entry): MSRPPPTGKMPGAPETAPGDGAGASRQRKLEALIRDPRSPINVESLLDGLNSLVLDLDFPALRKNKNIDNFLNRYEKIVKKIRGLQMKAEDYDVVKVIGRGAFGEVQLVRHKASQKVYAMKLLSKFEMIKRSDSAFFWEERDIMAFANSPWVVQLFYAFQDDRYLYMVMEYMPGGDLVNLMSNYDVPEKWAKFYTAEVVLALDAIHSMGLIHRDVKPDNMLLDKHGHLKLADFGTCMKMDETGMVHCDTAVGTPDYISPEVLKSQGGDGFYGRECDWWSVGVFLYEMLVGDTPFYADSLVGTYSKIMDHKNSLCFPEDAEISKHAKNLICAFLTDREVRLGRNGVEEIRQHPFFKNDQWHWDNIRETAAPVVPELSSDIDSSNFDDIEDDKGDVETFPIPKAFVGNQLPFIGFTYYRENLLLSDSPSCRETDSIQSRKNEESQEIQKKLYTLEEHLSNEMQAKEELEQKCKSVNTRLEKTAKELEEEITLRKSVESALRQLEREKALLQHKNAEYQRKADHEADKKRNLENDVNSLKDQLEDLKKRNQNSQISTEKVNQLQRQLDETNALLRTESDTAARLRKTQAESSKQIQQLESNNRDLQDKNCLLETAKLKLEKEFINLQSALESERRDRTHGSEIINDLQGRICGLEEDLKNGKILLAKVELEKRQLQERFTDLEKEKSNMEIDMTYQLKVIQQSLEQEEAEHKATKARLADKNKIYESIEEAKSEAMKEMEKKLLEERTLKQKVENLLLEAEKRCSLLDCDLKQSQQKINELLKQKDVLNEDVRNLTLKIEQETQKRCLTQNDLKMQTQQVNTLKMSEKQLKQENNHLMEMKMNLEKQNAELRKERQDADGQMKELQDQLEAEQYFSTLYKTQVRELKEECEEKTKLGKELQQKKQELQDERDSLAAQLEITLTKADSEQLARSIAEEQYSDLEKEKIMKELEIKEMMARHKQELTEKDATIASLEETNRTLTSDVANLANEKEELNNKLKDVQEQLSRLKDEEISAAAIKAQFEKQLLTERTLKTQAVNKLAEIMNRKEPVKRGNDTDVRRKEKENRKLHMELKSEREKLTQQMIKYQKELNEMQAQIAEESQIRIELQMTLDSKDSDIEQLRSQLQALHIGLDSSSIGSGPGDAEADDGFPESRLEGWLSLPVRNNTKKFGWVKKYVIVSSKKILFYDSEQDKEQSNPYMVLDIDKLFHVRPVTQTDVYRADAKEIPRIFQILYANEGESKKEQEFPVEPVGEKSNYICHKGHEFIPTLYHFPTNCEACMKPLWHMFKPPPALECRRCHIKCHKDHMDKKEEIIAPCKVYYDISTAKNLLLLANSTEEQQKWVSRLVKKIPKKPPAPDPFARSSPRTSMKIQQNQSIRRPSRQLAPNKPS
Procedure, shortened: as §1

[9] = biological target: T9, NDR1 (STK38, IPI00027251) (Homo sapiens, UniProt Q15208)
T9 construct: endogenous in cells; host or cells: HeLa S3 cell lysate
Procedure, shortened: as §1

[10] = biological target: T10, CDK4 (IPI00007811) (Homo sapiens, UniProt P11802)
T10 construct: endogenous in cells; host or cells: HeLa S3
T10 sequence (P11802 whole entry): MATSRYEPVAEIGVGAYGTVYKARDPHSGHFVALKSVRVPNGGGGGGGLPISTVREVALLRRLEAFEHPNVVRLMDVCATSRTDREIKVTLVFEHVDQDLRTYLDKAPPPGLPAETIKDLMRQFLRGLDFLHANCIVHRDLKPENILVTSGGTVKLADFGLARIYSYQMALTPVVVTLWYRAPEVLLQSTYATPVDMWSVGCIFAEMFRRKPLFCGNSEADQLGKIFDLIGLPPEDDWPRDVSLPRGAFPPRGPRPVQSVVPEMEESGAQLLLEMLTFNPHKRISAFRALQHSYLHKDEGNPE
Procedure, shortened: as §1

[11] = control beads vs first incubation

CC(C)n1c(=O)ccc2cnc(Nc3ccc(OCCN)cc3)nc21 [V16742]
r (3 MG/1 MG LYSATE) ([1]; 3 mg vs 1 mg lysate): 2.35
r (5 h/2.5 h INC. TIME) ([1]; 5 h vs 2.5 h incubation time): 1.34
rAVERAGE (CTRL/1 INC) [1, 11]: 0.06
Ki ([1]; immobilized VI16742): 301 µM
rAVERAGE (2 INC/1 INC) ([1]; second vs first incubation): 0.85
rAVERAGE (CTRL/1 INC) [2, 11]: 0.09
Ki ([2]; immobilized VI16742): 109 µM
rAVERAGE (2 INC/1 INC) ([2]; second vs first incubation): 0.68
r (3 MG/1 MG LYSATE) ([3]; 3 mg vs 1 mg lysate): 2.14
r (5 h/2.5 h INC. TIME) ([3]; 5 h vs 2.5 h incubation time): 1.33
rAVERAGE (CTRL/1 INC) [3, 11]: 0.10
Ki ([3]; immobilized VI16742): 296 µM
rAVERAGE (2 INC/1 INC) ([3]; second vs first incubation): 0.85
r (3 MG/1 MG LYSATE) ([4]; 3 mg vs 1 mg lysate): 2.02
r (5 h/2.5 h INC. TIME) ([4]; 5 h vs 2.5 h incubation time): 0.95
rAVERAGE (CTRL/1 INC) [4, 11]: 0.07
Ki ([4]; immobilized VI16742): 117 µM
rAVERAGE (2 INC/1 INC) ([4]; second vs first incubation): 0.69
rAVERAGE (CTRL/1 INC) [5, 11]: 0.08
Ki ([5]; immobilized VI16742): 94.8 µM
rAVERAGE (2 INC/1 INC) ([5]; second vs first incubation): 0.65
r (5 h/2.5 h INC. TIME) ([6]; 5 h vs 2.5 h incubation time): 0.75
rAVERAGE (CTRL/1 INC) [6, 11]: 0.10
Ki ([6]; immobilized VI16742): 119 µM
rAVERAGE (2 INC/1 INC) ([6]; second vs first incubation): 0.70
rAVERAGE (CTRL/1 INC) [7, 11]: 0.18
Ki ([7]; immobilized VI16742): 104 µM
rAVERAGE (2 INC/1 INC) ([7]; second vs first incubation): 0.67
r (3 MG/1 MG LYSATE) ([8]; 3 mg vs 1 mg lysate): 3.18
r (5 h/2.5 h INC. TIME) ([8]; 5 h vs 2.5 h incubation time): 1.74
rAVERAGE (CTRL/1 INC) [8, 11]: 0.08
Ki ([8]; immobilized VI16742): 255 µM
rAVERAGE (2 INC/1 INC) ([8]; second vs first incubation): 0.83
rAVERAGE (CTRL/1 INC) [9, 11]: 0.01
Ki ([9]; immobilized VI16742): 78.3 µM
rAVERAGE (2 INC/1 INC) ([9]; second vs first incubation): 0.60
r (3 MG/1 MG LYSATE) ([10]; 3 mg vs 1 mg lysate): 1.77
r (5 h/2.5 h INC. TIME) ([10]; 5 h vs 2.5 h incubation time): 1.03
rAVERAGE (CTRL/1 INC) [10, 11]: 0.07
Ki ([10]; immobilized VI16742): 511 µM
rAVERAGE (2 INC/1 INC) ([10]; second vs first incubation): 0.91
